Assay results as given in patent publication US8987287B2, “Spirocyclic morphinans and their use” (Purdue Pharma L.P., priority 2012, dated 2015).

Experiments:
μ-opioid receptor = μ-opioid receptor (Homo sapiens (Human), UniProt P35372); assay: μ-opioid receptor [35S]GTPγS functional assay, U-2 OS cells; format: biochemical; conditions: for Emax: relative to DAMGO, U-2 OS cells
Procedure: μ-Opioid Receptor Functional Assay Procedures: [^35S]GTPγS functional assays were conducted using freshly thawed μ-receptor membranes prepared in-house from a cell line expressing recombinant μ opioid receptor in a HEK-293, CHO or U-2 OS cell background, or purchased from a commercial source (Perkin Elmer, Shelton, Conn.; or DiscovRx, Fremont, Calif.). Assay reactions were prepared by sequentially adding the following reagents to binding buffer (100 mM NaCl, 10 mM MgCl2, 20 mM HEPES, pH 7.4) on ice (final concentrations indicated): membrane protein (0.026 mg/mL), saponin ([…]), GDP ([…]) and [^35S]GTPγS (0.20 nM; Perkin Elmer, Shelton, Conn.). The prepared membrane solution (190 μl/well) was transferred to 96-shallow well polypropylene plates containing 10 μl of 20× concentrated stock solutions of the agonist [D-Ala^2, N-methyl-Phe^4 Gly-ol^5]-enkephalin (DAMGO) prepared in dimethyl sulfoxide (DMSO). Plates were incubated for 30 min at about 25° C. with shaking. Reactions were terminated by rapid filtration onto 96-well Unifilter GF/B filter plates (Perkin Elmer, Shelton, Conn.) using a 96-well tissue harvester (Perkin Elmer, Shelton, Conn.) followed by three filtration washes with 200 μl of ice-cold wash buffer (10 mM NaH2PO4, 10 mM Na2HPO4, pH 7.4). Filter plates were subsequently dried at 50° C. for 2-3 hours. BetaScint scintillation cocktail (Perkin Elmer, Shelton, Conn.) was added (50 μl/well) and plates were counted using a Packard Top-Count for 1 min/well. Data were analyzed using the sigmoidal dose-response curve fitting functions in GraphPad PRISM v. 3.0, or an in-house function for non-linear, sigmoidal dose-response curve-fitting.
μ-Opioid Receptor Functional Data: μ GTP EC50 is the concentration of a compound providing 50% of the maximal response for the compound at a μ-opioid receptor.
μ GTP Emax (%) is the maximal effect elicited by a compound relative to the effect elicited by DAMGO, a standard μ agonist. Generally, the μ GTP Emax (%) value measures the efficacy of a compound to treat or prevent pain or other Conditions.
(§1) The following TABLE 3 provides results on the activity response of certain Compounds of the Invention at the μ- and κ-opioid receptors determined as described above using U-2 OS cells.

κ opioid receptor = κ opioid receptor (Homo sapiens (Human), UniProt P41145); assay: κ-opioid receptor [35S]GTPγS functional assay, U-2 OS cells; format: biochemical; conditions: for Emax: relative to U69,593, U-2 OS cells
Procedure: κ-Opioid Receptor Functional Assay Procedures: Functional [^35S]GTPγS binding assays were conducted as follows. κ opioid receptor membrane solution was prepared by sequentially adding final concentrations of 0.026 μg/μl κ membrane protein (in-house), 10 μg/mL saponin, 3 μM GDP and 0.20 nM [^35S]GTPγS to binding buffer (100 mM NaCl, 10 mM MgCl2, 20 mM HEPES, pH 7.4) on ice. The prepared membrane solution (190 μl/well) was transferred to 96-shallow well polypropylene plates containing 10 μl of 20× concentrated stock solutions of agonist prepared in DMSO. Plates were incubated for 30 min at a temperature of about 25° C. with shaking. Reactions were terminated by rapid filtration onto 96-well Unifilter GF/B filter plates (Perkin Elmer, Shelton, Conn.) using a 96-well tissue harvester (Packard) and followed by three filtration washes with 200 μl ice-cold binding buffer (10 mM NaH2PO4, 10 mM Na2HPO4, pH 7.4). Filter plates were subsequently dried at 50° C. for 2-3 hours. Fifty μl/well scintillation cocktail (Perkin Elmer, Shelton, Conn.) was added and plates were counted in a Packard Top-Count for 1 min/well.
κ-Opioid Receptor Functional Data: κ GTP EC50 is the concentration of a compound providing 50% of the maximal response for the compound at a κ receptor.
κ GTP Emax (%) is the maximal effect elicited by a compound relative to the effect elicited by U69,593.
as §1

Row | SMILES | EC50 (μ-opioid receptor) [nM] | Emax (μ-opioid receptor) [%] | EC50 (κ opioid receptor) [nM] | Emax (κ opioid receptor) [%]
1 | COc1ccc2c(c1)[C@]13CCN(CC=C(C)C)[C@H](C2)[C@]1(O)CC[C@@]1(C3)NC(=O)NC1=O [Compound 21, (4bR,4′S,8aS,9R)-8a-hydroxy-3-methoxy-11-(3-methylbut-2-en-1-yl)-5,7,8,8a,9,10-hexahydrospiro[9,4b-(epiminoethano)phenanthrene-6,4′-imidazolidine]-2′,5′-dione] | > 20000 | 5.5 | > 20000 | -1
2 | O=C1NC(=O)[C@@]2(CC[C@@]3(O)[C@H]4Cc5ccc(O)cc5[C@@]3(CCN4CC3CC3)C2)N1CC1CC1 [Compound 65, (4S,4b′R,8a′S,9′R)-3,11′-bis(cyclopropylmethyl)-3′,8a′-dihydroxy-8′,8a′,9′,10′-tetrahydro-5′H,7′H-spiro[imidazolidine-4,6′-[9,4b](epiminoethano)phenantrene]-2,5-dione] | > 20000 | 2 | 36.4 ± 7.08 | 92.3 ± 1.45
3 | CCN1C(=O)N[C@]2(CC[C@@]3(O)[C@H]4Cc5ccc(O)cc5[C@@]3(CCN4CC)C2)C1=O [Compound 31, (4bR,4′S,8aS,9R)-1′,11-diethyl-3,8a-dihydroxy-5,7,8,8a,9,10-hexahydrospiro[9,4b-(epiminoethano)phenanthrene-6,4′-imidazolidine]-2′,5′-dione] | 1510 ± 309 | 88.9 ± 0.94 | 445 ± 197 | 102 ± 4.48
4 | CC(C)CCN1CC[C@]23C[C@]4(CC[C@@]2(O)[C@H]1Cc1ccc(O)cc13)NC(=O)NC4=O [Compound 28, (4bR,4′S,8aS,9R)-3,8a-dihydroxy-11-isopentyl-5,7,8,8a,9,10-hexahydrospiro[9,4b-(epiminoethano)phenanthrene-6,4′-imidazolidine]-2′,5′-dione] | 154 ± 20.1 | 113 ± 2.78 | 604 ± 112 | 88 ± 4.36
5 | CCN1C(=O)N[C@]2(CC[C@@]3(O)[C@H]4Cc5ccc(O)cc5[C@@]3(CCN4C)C2)C1=O [Compound 61, (4S,4b′R,8a′S,9′R)-1-ethyl-3′,8a′-dihydroxy-11′-methyl-8′,8a′,9′,10′-tetrahydro-5′H,7′H-spiro[imidazolidine-4,6′-[9,4b](epiminoethano)phenantrene]-2,5-dione] | 39.1 ± 4.82 | 103.3 ± 0.88 | 2480 ± 249 | 109 ± 6.06
6 | COc1ccc2c(c1)[C@]13CCN(CC(F)F)[C@H](C2)[C@]1(O)CC[C@@]1(C3)NC(=O)NC1=O [Compound 19, (4bR,4′S,8aS,9R)-11-(2,2-difluoroethyl)-8a-hydroxy-3-methoxy-5,7,8,8a,9,10-hexahydrospiro[9,4b-(epiminoethano)phenanthrene-6,4′-imidazolidine]-2′,5′-dione] | > 20000 | 1 | > 20000 | 52
7 | CCN1C(=O)N[C@]2(CC[C@@]3(O)[C@H]4Cc5ccc(O)cc5[C@@]3(CCN4CC3CC3)C2)C1=O [Compound 45, (4S,4b′R,8a′S,9′R)-11′-(cyclopropylmethyl)-1-ethyl-3′,8a′-dihydroxy-8′,8a′,9′,10′-tetrahydro-5′H,7′H-spiro[imidazolidine-4,6′-[9,4b](epiminoethano)phenantrene]-2,5-dione] | 6.47 ± 0.69 | 45.9 ± 3.04 | 4.34 ± 0.74 | 96.3 ± 1.33
8 | CCN1CC[C@]23C[C@]4(CC[C@@]2(O)[C@H]1Cc1ccc(O)cc13)NC(=O)NC4=O [Compound 29] | 1260 ± 206 | 83.8 ± 0.8 | 250 ± 95 | 102 ± 2.19
9 | COc1ccc2c(c1)[C@]13CCN(C/C=C/c4ccccc4)[C@H](C2)[C@]1(O)CC[C@@]1(C3)NC(=O)NC1=O [Compound 24, (4bR,4′S,8aS,9R)-11-cinnamyl-8a-hydroxy-3-methoxy-5,7,8,8a,9,10-hexahydrospiro[9,4b-(epiminoethano)phenanthrene-6,4′-imidazolidine]-2′,5′-dione] | > 20000 | 8 | > 20000 | 29.7 ± 1.86
10 | COc1ccc2c(c1)[C@]13CCN(CC4CCOCC4)[C@H](C2)[C@]1(O)CC[C@@]1(C3)NC(=O)NC1=O [Compound 25, (4bR,4′S,8aS,9R)-8a-hydroxy-3-methoxy-11-((tetrahydro-2H-pyran-4-yl)methyl)-5,7,8,8a,9,10-hexahydrospiro[9,4b-(epiminoethano)phenanthrene-6,4′-imidazolidine]-2′,5′-dione] | > 20000 | 6.67 ± 0.88 | > 20000 | 10 ± 4.6
11 | CCN1C(=O)N(CC)[C@]2(CC[C@@]3(O)[C@H]4Cc5ccc(O)cc5[C@@]3(CCN4C)C2)C1=O [Compound 62, (4S,4b′R,8a′S,9′R)-1,3-diethyl-3′,8a′-dihydroxy-11′-methyl-8′,8a′,9′,10′-tetrahydro-5′H,7′H-spiro[imidazolidine-4,6′-[9,4b](epiminoethano)phenantrene]-2,5-dione] | 75.2 ± 3.36 | 78 ± 0.58 | 711 ± 37.8 | 108 ± 2.52
12 | CCN1C(=O)N[C@]2(CC[C@@]3(O)[C@H]4Cc5ccc(OC)cc5[C@@]3(CCN4CC)C2)C1=O [Compound 16, (4bR,4′S,8aS,9R)-1′,11-diethyl-8a-hydroxy-3-methoxy-5,7,8,8a,9,10-hexahydrospiro[9,4b-(epiminoethano)phenanthrene-6,4′-imidazolidine]-2′,5′-dione] | > 20000 | 8.5 | > 20000 | 50 ± 1
13 | O=C1NC(=O)[C@@]2(CC[C@@]3(O)[C@H]4Cc5ccc(O)cc5[C@@]3(CCN4CCc3ccccc3)C2)N1 [Compound 35, (4bR,4′S,8aS,9R)-3,8a-dihydroxy-11-phenethyl-5,7,8,8a,9,10-hexahydrospiro[9,4b-(epiminoethano)phenanthrene-6,4′-imidazolidine]-2′,5′-dione] | 1.23 ± 0.093 | 104 ± 3.51 | 270 ± 44.1 | 84 ± 1.53
14 | O=C1NC(=O)[C@@]2(CC[C@@]3(O)[C@H]4Cc5ccc(O)cc5[C@@]3(CCN4CC3CC3)C2)N1Cc1ccccc1 [Compound 67, (4bR,4′S,8aS,9R)-3′-benzyl-11-(cyclopropylmethyl)-3,8a-dihydroxy-5,7,8,8a,9,10-hexahydrospiro[9,4b-(epiminoethano)phenanthrene-6,4′-imidazolidine]-2′,5′-dione] | 9.38 ± 0.76 | 20 | 28.4 ± 8.48 | 115 ± 4.84
15 | COc1ccc2c(c1)[C@]13CCN(CCCC(F)(F)F)[C@H](C2)[C@]1(O)CC[C@@]1(C3)NC(=O)NC1=O [Compound 18, (4bR,4′S,8aS,9R)-8a-hydroxy-3-methoxy-11-(4,4,4-trifluorobutyl)-5,7,8,8a,9,10-hexahydrospiro[9,4b-(epiminoethano)phenanthrene-6,4′-imidazolidine]-2′,5′-dione] | > 20000 | 20.7 ± 4.81 | > 20000 | 86 ± 7.21
16 | CCN1C(=O)NC(=O)[C@@]12CC[C@@]1(O)[C@H]3Cc4ccc(O)cc4[C@@]1(CCN3C)C2 [Compound 69, (4S,4b′R,8a′S,9′R)-3-ethyl-3′,8a′-dihydroxy-11′-methyl-8′,8a′,9′,10′-tetrahydro-5′H,7′H-spiro[imidazolidine-4,6′-[9,4b](epiminoethano)phenantrene]-2,5-dione] | 43.6 ± 2.97 | 97.3 ± 1.45 | 866 ± 94.6 | 110 ± 8.5
17 | O=C1NC(=O)[C@@]2(CC[C@@]3(O)[C@H]4Cc5ccc(O)cc5[C@@]3(CCN4CCC(F)(F)F)C2)N1 [Compound 33, (4bR,4′S,8aS,9R)-3,8a-dihydroxy-11-(3,3,3-trifluoropropyl)-5,7,8,8a,9,10-hexahydrospiro[9,4b-(epiminoethano)phenanthrene-6,4′-imidazolidine]-2′,5′-dione] | 272 ± 18 | 39.7 ± 1.86 | 393 ± 13.5 | 98.3 ± 1.45
